Reference: patent US20110178179A1, “1-AMINO-ALKYLCYCLOHEXANE DERIVATIVES FOR THE TREATMENT OF COGNITIVE IMPAIRMENT IN TINNITUS” (MERZ PHARMA GmbH & CO. KGaA, priority 2008, published 2011)

Key:
[1] = biological target: α9/α10 nicotinic receptor (Rattus norvegicus, UniProt P43144+Q9JLB5); settings: Plazas, et al., Eur J. Pharmacol., 2007; cited from earlier work
[2] = test system: subjects with subjective tinnitus of at least moderate severity; experiment: Double-blind placebo-controlled pilot trial of neramexane in tinnitus: THF-12 (TBF-12) questionnaire; assay type: in vivo, human; settings: for TBF-12 functional-communicational score, Actual Mean ± SD / TBF-12 functional-communicational score, Neramexane - Placebo LSMean Diff. ± SE / TBF-12 functional-communicational score, Change Mean ± SD / TBF-12 functional-communicational score, Change LSMean: ITT-LOCF; for TBF-12 functional-communicational score, Change Mean ± SD / TBF-12 functional-communicational score, Change LSMean: baseline to Week 16; for TBF-12 functional-communicational score, Change LSMean: ANCOVA
Experimental: The objective of this pilot project was to conduct a clinical trial to assess the efficacy of neramexane as a treatment for tinnitus. The primary objective of this study was to compare the efficacy, tolerability and safety of neramexane mesylate at three different dosages (25, 50 or 75 mg/d) with placebo in subjects with subjective tinnitus of at least moderate severity.
(§1) In a double-blind, multicenter, randomized, placebo-controlled, parallel-group study, the efficacy of neramexane in subjects suffering from tinnitus of at least moderate severity was assessed. Approximately 100 patients, who fulfilled particular inclusion criteria and met none of particular exclusion criteria, were randomized to each of four double-blind treatment groups (neramexane mesylate 25, 50, 75 mg/d or placebo), resulting in approximately 400 patients in total.
(§2) The double-blind, 16-week treatment period consisted of a 4-week uptitration period and a 12-week fixed-dose treatment period at maintenance b.i.d. dosing. In case of poor tolerability, however, the investigator could consider a dose reduction by 25 mg/d (or placebo, respectively). After the treatment phase, there was a 4-week follow-up period with no active treatment and concomitant therapy restrictions. In total, this study involved seven study visits: screening, baseline, and at the end of weeks 4, 8, 12, 16, and 20.
Visit 1 (screening): After signing the consent form, the subject underwent a physical examination and clinical laboratory testing. Patient eligibility for the study was evaluated via a check of inclusion/exclusion criteria. An initial Tinnitus Interview was conducted. The subject also completed a Tinnitus-Beeinträchtigungs-Fragebogen (THF-12) (i.e., a 12-item German modified and validated version (Greimel K V et al., Tinnitus-Beeinträchtigungs-Fragebogen (THF-12). Manual. Frankfurt am Main: Swets & Zeitlinger B. V.; 2000) of the 25-item Tinnitus Handicap Inventory or THI (Newman C W, et al. Development of the Tinnitus Handicap Inven-tory. Arch Otolaryngol Head Neck Surg 1996; 122(2): 143-148; Newman C W, et al. Psychometric adequacy of the Tinnitus Handicap Inventory (THI) for evaluating treatment outcome. J Am Acad Audiol 1998; 9(2): 153-160.)), a Hospital Anxiety and Depression Scale—Depression Subscale (HADS-D) Questionnaire and a Hyperacusis (Geräuschüberempfindlichkeit-Fragenbogen (GÜF)) Questionnaire (if applicable).
(§3) Study medication was dispensed at Visit 2 (baseline, day 0). Each patient received one blister box containing 5 blister cards (including one reserve blister) of double-blind study medication (i.e., […]). Subjects were instructed to take 2 tablets twice daily (4 tablets/d), beginning the day after dispensing of the study medication, until they returned for their next study visit (Visit 3). For those subjects assigned to receive active medication, some placebo tablets were incorporated into the dosing regimen to ensure blinding during the uptitration period. The target fixed-maintenance dose of 25, 50, or 75 mg neramexane mesylate/d was administered starting with the fifth week of double-blind treatment and was continued throughout the study. At each of the subsequent visits (Visits 3, 4, and 5, corresponding to end of week 4, 8 and 12) patients received another blister box containing 5 blister cards for the 4 week intervals, with double-blind medication for the intervening treatment period until the next study visit.
Primary Outcome • The change in THF-12 total score from baseline (Visit 2) to the endpoint visit (Visit 6, i.e. Week 16) was the primary efficacy endpoint in this study. […]

[3] = test system: subjects with subjective tinnitus of at least moderate severity; experiment: Double-blind placebo-controlled pilot trial of neramexane in tinnitus: structured tinnitus interview, question 12/5 (concentration); assay type: in vivo, human; settings: for Concentration: Affected (%) / Concentration: Affected n / Concentration: No effect (%) / Concentration: No effect n / Concentration: Prevented (%) / Concentration: Prevented n: ITT-LOCF
Experimental: as §1, §2, §3
Secondary Outcomes • THF-12 total score (values and absolute change from baseline) at all post-baseline visits except the endpoint visit. • Change in the THF-12 total score from Week 16 to Week 20 (values and absolute changes). • THF-12 factorial scores (values and absolute change from baseline, including the change from Week 16 to Week 20) at all post-baseline visits. • Hyperacusis questionnaire GÜF (“Geräuschüberempfindlichkeits-Fragebogen”), values and absolute change from baseline, including the change from Week 16 to Week 20, total and factorial scores at all post-baseline visits if hyperacusis was present. • Clinical global impression of change: item 27 of the tinnitus follow-up interview was summarized after dichotomization of the responses in any improvement (values 1, 2, 3) versus no improvement (values 4, 5, 6, 7) and in marked improvement (values 1, 2) versus no marked improvement (values 3, 4, 5, 6, 7). • Total score of HADS-D as well as the depression and anxiety subscale scores (values and absolute change from baseline, also the change from week 16 to week 20) at all post-baseline visits. • Values of tinnitus interview (initial and follow-up) at all post-baseline visits; absolute change from baseline and change from Week 16 to Week 20 for items 8, 9, 10, 19, 20, 21, 24, 25 and 26 of the follow-up interview.
All efficacy analyses were performed on the ITT population using the last-observation-carried-forward (LOCF) approach. For sensitivity purposes an analysis of the per-protocol set and of observed cases was performed additionally. All statistical tests used for testing the primary efficacy (confirmatory testing) and secondary efficacy criteria (exploratory), and all other statistical tests used for exploratory analyses were two-sided hypothesis tests performed at the 5% significance level. For all variables standard descriptive statistics were calculated.

[4] = Baseline, 25 mg/d group, N = 106
[5] = Baseline, 50 mg/d group, N = 106
[6] = Baseline, 75 mg/d group, N = 99
[7] = Week 16 or end of treatment, 25 mg/d, N = 101
[8] = Week 16 or end of treatment, 50 mg/d, N = 103
[9] = Week 16 or end of treatment, 75 mg/d, N = 93
[10] = final daily doses of 50 or 75 mg, 16 weeks, distinct from placebo or low-dose (25 mg)

Chain of α9/α10 nicotinic receptor (P43144 26-479): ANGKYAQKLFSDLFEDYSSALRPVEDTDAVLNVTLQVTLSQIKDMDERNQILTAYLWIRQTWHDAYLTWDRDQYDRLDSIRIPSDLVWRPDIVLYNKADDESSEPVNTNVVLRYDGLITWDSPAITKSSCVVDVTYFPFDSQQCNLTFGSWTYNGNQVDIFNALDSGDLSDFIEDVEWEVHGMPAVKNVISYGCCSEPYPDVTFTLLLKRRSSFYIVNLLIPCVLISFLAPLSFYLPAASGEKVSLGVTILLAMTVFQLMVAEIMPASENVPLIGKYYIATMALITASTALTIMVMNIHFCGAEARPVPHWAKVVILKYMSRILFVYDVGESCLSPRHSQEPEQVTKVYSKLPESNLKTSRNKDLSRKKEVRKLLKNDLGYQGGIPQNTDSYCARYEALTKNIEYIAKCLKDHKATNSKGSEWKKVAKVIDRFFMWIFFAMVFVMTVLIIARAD
Chain of α9/α10 nicotinic receptor (Q9JLB5 25-447): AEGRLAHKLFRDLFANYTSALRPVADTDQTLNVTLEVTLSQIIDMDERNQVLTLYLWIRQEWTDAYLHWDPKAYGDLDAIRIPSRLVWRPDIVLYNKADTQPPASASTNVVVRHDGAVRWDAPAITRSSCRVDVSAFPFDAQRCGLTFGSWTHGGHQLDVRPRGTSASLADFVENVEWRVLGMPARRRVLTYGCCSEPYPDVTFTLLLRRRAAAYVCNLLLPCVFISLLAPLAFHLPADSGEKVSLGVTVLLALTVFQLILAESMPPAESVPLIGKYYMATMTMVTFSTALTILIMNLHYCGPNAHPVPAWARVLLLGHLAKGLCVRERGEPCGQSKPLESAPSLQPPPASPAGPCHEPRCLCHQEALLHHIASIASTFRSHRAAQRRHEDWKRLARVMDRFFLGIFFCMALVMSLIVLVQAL

SMILES: CC1(C)CC(C)(C)CC(C)(N)C1 [Neramexane, 1-amino-1,3,3,5,5-pentamethylcyclohexane]
- activity at α9/α10 nicotinic receptor [1]: α9/α10 nicotinic receptor antagonist
- TBF-12 functional-communicational score, Actual Mean ± SD ([2]; Baseline, 25 mg/d group, n=106): 5.0 ± 2.1
- TBF-12 functional-communicational score, Actual Mean ± SD ([2]; Baseline, 50 mg/d group, n=106): 5.2 ± 1.9
- TBF-12 functional-communicational score, Actual Mean ± SD ([2]; Baseline, 75 mg/d group, n=99): 5.1 ± 2.2
- TBF-12 functional-communicational score, Neramexane - Placebo LSMean Diff. ± SE ([2]; Week 16, 25 mg/d vs placebo): 0.0 ± 0.2
- TBF-12 functional-communicational score, Actual Mean ± SD ([2]; Week 16, 25 mg/d, n=106): 4.3 ± 2.5
- TBF-12 functional-communicational score, Neramexane - Placebo LSMean Diff. ± SE ([2]; Week 16, 50 mg/d vs placebo): −0.5 ± 0.2
- TBF-12 functional-communicational score, Actual Mean ± SD ([2]; Week 16, 50 mg/d, n=106): 3.9 ± 2.2
- TBF-12 functional-communicational score, Neramexane - Placebo LSMean Diff. ± SE ([2]; Week 16, 75 mg/d vs placebo): −0.4 ± 0.2
- TBF-12 functional-communicational score, Actual Mean ± SD ([2]; Week 16, 75 mg/d, n=99): 4.0 ± 2.5
- TBF-12 functional-communicational score, Change Mean ± SD ([2]; 25 mg/d): −0.7 ± 1.5
- TBF-12 functional-communicational score, Change LSMean ([2]; 25 mg/d): −0.7
- TBF-12 functional-communicational score, Change Mean ± SD ([2]; 50 mg/d): −1.2 ± 2.0
- TBF-12 functional-communicational score, Change LSMean ([2]; 50 mg/d): −1.2
- TBF-12 functional-communicational score, Change Mean ± SD ([2]; 75 mg/d): −1.1 ± 1.8
- TBF-12 functional-communicational score, Change LSMean ([2]; 75 mg/d): −1.0
- effect on cognitive function in patients with tinnitus (conclusion of Example 1) ([2]; patients with tinnitus): capability to improve cognitive function
- Concentration: Affected (%) [3, 4]: (82.1) %
- Concentration: Affected n [3, 4]: 87
- Concentration: No effect (%) [3, 4]: (12.3) %
- Concentration: No effect n [3, 4]: 13
- Concentration: Prevented (%) [3, 4]: (5.7) %
- Concentration: Prevented n [3, 4]: 6
- Concentration: Affected (%) [3, 5]: (84.0) %
- Concentration: Affected n [3, 5]: 89
- Concentration: No effect (%) [3, 5]: (9.4) %
- Concentration: No effect n [3, 5]: 10
- Concentration: Prevented (%) [3, 5]: (6.6) %
- Concentration: Prevented n [3, 5]: 7
- Concentration: Affected (%) [3, 6]: (73.7) %
- Concentration: Affected n [3, 6]: 73
- Concentration: No effect (%) [3, 6]: (19.2) %
- Concentration: No effect n [3, 6]: 19
- Concentration: Prevented (%) [3, 6]: (7.1) %
- Concentration: Prevented n [3, 6]: 7
- Concentration: Affected (%) [3, 7]: (81.2) %
- Concentration: Affected n [3, 7]: 82
- Concentration: No effect (%) [3, 7]: (17.8) %
- Concentration: No effect n [3, 7]: 18
- Concentration: Prevented (%) [3, 7]: (1.0) %
- Concentration: Prevented n [3, 7]: 1
- Concentration: Affected (%) [3, 8]: (73.8) %
- Concentration: Affected n [3, 8]: 76
- Concentration: No effect (%) [3, 8]: (24.3) %
- Concentration: No effect n [3, 8]: 25
- Concentration: Prevented (%) [3, 8]: (1.9) %
- Concentration: Prevented n [3, 8]: 2
- Concentration: Affected (%) [3, 9]: (73.1) %
- Concentration: Affected n [3, 9]: 68
- Concentration: No effect (%) [3, 9]: (23.7) %
- Concentration: No effect n [3, 9]: 22
- Concentration: Prevented (%) [3, 9]: (3.2) %
- Concentration: Prevented n [3, 9]: 3

SMILES: CC1(C)CC(C)(C)CC(C)(N)C1.CS(=O)(=O)O [neramexane mesylate]
- improvement of tinnitus as measured by the THF-12 ([2]; final daily doses of 50 or 75 mg, 16-week double-blind treatment, distinct from placebo or low-dose (25 mg)): clear improvement of their tinnitus
- improvement of cognition, item one (concentration) and item two (focused attention) of the functional-communicational subscore of the THF-12 [2, 10]: clear improvement of their cognition
- improvement of concentration, question 12/5 of the structured tinnitus interview [3, 10]: clear improvement of their concentration
